# Measured values published in US20230390269A1, “METHOD OF TREATMENT WITH TRADIPITANT” (Vanda Pharmaceuticals Inc., priority 2017, published 2023).
# Bridge positions count the residues as written; N and C are the ends. Square brackets hold non-standard residues; d marks the D form. Peptide text beside a SMILES is read from it. * marks the point of attachment. NH(β-GlcNAc) = CC(=O)N[C@@H]1[C@@H](O)[C@H](O)[C@@H](CO)O[C@H]1N*; Dap = NC[C@H](N)C(=O)O
# Legend:
# NK-1 = biological target: T1, NK-1 (Homo sapiens, UniProt P25103); details: patients with IBS, double-blind study; cited from earlier work
# T1 construct: host or cells: patients with IBS
# NK-1 receptor [1] = biological target: T2, NK-1 receptor (Meriones unguiculatus, UniProt Q5DUB1); test: NK-1 agonist (GR73632, icv)-induced foot-tapping behavior in gerbils; type: in vivo, Mongolian gerbil
# T2 construct: from tissue; host or cells: living gerbil, brain (icv agonist)
# Protocol: Male Mongolian gerbils (Harlan Sprague Dawley, Indianapolis, IN) weighing 26 to 40 grams are administered the selective neurokinin-1 receptor agonist GR73632 (3 pmol) via direct, vertical, free-hand intracerebroventricular (icy) injection to a depth of 4.5 mm below bregma with a cuffed 27-gauge needle attached to a 50 μl Hamilton syringe. Immediately after injection, animals are placed individually into isolated chambers with pressure-sensitive velocimeter platform floors (San Diego Instruments acoustic startle apparatus) that detect and quantify vibration. The San Diego Instruments “SR” DOS-based computer program is used on a PC to record the number of foot-taps over the following 6 to 10 minutes, beginning 30 seconds after the floor was lightly tapped. Raw data is converted with a Microsoft Excel macro that determines the number of events over threshold (125) in each 250-millisecond time bin over the 5.5 minutes following onset of observation. The total number and average intensity of events over the duration is determined. Total number of taps is analyzed with one-way ANOVA and post-hoc Dunnett's test using JMP statistical software.
# A dose-response curve (with doses of 0.3, 1, 3 and 10 pmols, icy) is initially generated with the NK-1 agonist GR73632. […] The 3 pmol dose is subsequently chosen as the dose of choice for antagonism experiments.
# NK-1 antagonists are tested for their ability to attenuate GR73632-induced foot tapping. NK-1 antagonists are administered (po) via oral feeding tube at doses and time points specified in each experiment. All animals receive only one dose of NK-1 antagonists in all tests.
# NK-1 antagonists are administered at multiple doses (at least 3; one dose per animal) and response to GR73632 is measured.
# Tradipitant is dissolved in 1% CMC/0.5% SLS/0.085% PVP vehicle.
# NK-2 receptor [2] = biological target: T3, NK-2 receptor (Homo sapiens, UniProt P21452); details: in vivo; cited from earlier work
# T3 sequence (P21452 1-398): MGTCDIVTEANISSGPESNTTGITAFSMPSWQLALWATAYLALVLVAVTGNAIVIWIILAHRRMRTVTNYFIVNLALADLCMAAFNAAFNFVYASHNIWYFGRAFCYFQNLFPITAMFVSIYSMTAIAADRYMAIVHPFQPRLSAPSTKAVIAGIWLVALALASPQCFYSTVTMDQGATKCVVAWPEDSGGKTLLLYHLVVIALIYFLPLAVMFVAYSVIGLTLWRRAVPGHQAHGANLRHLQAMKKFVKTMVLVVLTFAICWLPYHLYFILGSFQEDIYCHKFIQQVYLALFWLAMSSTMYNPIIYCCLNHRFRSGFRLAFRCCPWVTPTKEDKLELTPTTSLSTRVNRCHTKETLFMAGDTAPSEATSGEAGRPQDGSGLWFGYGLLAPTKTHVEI
# [3] = tested on: panel of 74 other receptors, enzymes, and ion channels; test: Selectivity panel of 74 other receptors, enzymes and ion channels; type: binding
# Protocol: By 3 different measures, tradipitant is also a potent centrally active NK-1 antagonist in vivo.
# (§1) In addition, tradipitant is evaluated in a panel of 74 other receptors, enzymes, and ion channels.
# NK-2 receptor [4] = biological target: T3, NK-2 receptor; test: NK-2 receptor inhibition (selectivity panel); type: binding
# Protocol: as §1
# NK-3 receptor = biological target: T4, NK-3 receptor (Homo sapiens, UniProt P29371); test: NK-3 receptor inhibition (selectivity panel); type: binding
# T4 sequence (P29371 1-465): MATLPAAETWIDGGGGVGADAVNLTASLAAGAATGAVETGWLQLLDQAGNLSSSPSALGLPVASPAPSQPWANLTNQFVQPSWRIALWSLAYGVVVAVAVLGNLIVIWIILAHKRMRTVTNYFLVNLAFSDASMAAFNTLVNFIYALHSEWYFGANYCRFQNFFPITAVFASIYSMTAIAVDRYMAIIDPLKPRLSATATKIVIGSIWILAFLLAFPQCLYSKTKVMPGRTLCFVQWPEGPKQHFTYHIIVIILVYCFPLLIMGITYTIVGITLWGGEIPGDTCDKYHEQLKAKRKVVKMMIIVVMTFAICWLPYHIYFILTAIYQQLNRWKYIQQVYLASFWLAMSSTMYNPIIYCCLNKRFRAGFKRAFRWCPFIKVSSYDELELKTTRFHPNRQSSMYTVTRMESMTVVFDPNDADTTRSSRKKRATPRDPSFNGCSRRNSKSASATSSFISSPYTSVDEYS
# Protocol: as §1
# NK-1 receptor [5] = biological target: T5, NK-1 receptor (Cavia porcellus, UniProt P30547); test: GR73632-induced vocalization in guinea pigs; type: in vivo, guinea pig
# T5 construct: from tissue; host or cells: living guinea pig, brain (icv agonist)
# Protocol: When introduced into the brain, the NK-1 receptor agonist, substance P (SP) elicits distress vocalizations in the guinea pig that can be inhibited by NK-1 antagonists (Kramer et al. 1998; Rupniak et al. 2000).
# Male Dunkin/Hartley guinea pigs (200 to 250 grams) are orally administered either vehicle or an NK-1 antagonist. Approximately 45 minutes later (for dose response studies), the animals are anesthetized and 0.1 nmol of GR73632 (SP analog) in a vehicle volume of 5 μl is injected into the cerebral ventricle at the intersection of bregma and the midline of the skull. Animals are placed in a dark testing chamber located inside of a sound attenuation cubicle and vocalizations are recorded for 30 minutes following recovery from anesthesia. The time spent vocalizing is quantified for each animal. In the duration of action study (FIG. 5), 0.1 mg/kg of tradipitant or vehicle solution is administered orally and then 2, 4, or 7 hours later, 0.1 nmol of GR73632 is administered into the cerebral ventricle as described above. Vocalizations are recorded and quantified as indicated above. Vehicle solutions are either CMC (FIG. 4 data) or a 10% ethanol/emulphor, 10% propylene glycol solution (FIGS. 5 and 6). Data is analyzed using one-tailed t-tests.
# brain NK-1 receptors = test: Occupancy of brain NK-1 receptors with tracer GR205171; type: in vivo; details: p.o., tracer GR205171 iv
# Protocol: A tracer NK-1 antagonist compound (GR205171) is used to evaluate the ability of other NK-1 antagonists to occupy the brain NK-1 receptors. In these studies, the test compounds are administered orally and the tracer compound administered intravenously afterward. The occupancy of the NK-1 receptors is evaluated by quantitating the amount of the tracer compound bound to the brain NK-1 receptors after increasing doses of the test compounds.
# nausea in gastroparesis = test: Phase II study in patients with gastroparesis, open label extension; type: in vivo, human; details: 85 mg bid
# Excerpt: In a phase II study of tradipitant in patients with gastroparesis, participants initially enter 4 week screening period prior to treatment with tradipitant, during which they answer a daily symptom questionnaire rating their nausea severity on a scale of […] 0 represents no nausea, 1 represents very mild nausea, 2 represents mild nausea, 3 represents moderate nausea, 4 represents severe nausea, and 5 represents very severe nausea. After the 4 week screening period, patients enter the double blind randomized portion of the study, in which they receive either tradipitant 85 mg bid, or placebo. After 4 weeks of blinded study drug treatment, patients have the opportunity to enter an additional 8 week open label extension, during which each subject receives tradipitant 85 mg bid. 64 subjects participate in at least one week of the open label tradipitant dosing portion of the study. The average daily diarized nausea scores are reported for subjects during the 4 week screening period and during the up to 8 week open label extension.
# T2 sequence (Q5DUB1 whole entry): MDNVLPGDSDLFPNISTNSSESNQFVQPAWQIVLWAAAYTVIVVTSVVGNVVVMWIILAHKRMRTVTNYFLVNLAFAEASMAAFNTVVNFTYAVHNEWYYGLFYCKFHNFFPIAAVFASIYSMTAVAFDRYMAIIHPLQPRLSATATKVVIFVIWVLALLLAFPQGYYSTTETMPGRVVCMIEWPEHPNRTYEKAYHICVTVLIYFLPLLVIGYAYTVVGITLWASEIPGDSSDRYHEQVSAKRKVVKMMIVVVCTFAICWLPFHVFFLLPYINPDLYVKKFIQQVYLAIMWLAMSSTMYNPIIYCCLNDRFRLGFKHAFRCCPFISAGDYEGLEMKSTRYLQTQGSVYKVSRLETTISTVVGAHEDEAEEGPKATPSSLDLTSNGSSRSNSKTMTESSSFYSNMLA
# T5 sequence (P30547 whole entry): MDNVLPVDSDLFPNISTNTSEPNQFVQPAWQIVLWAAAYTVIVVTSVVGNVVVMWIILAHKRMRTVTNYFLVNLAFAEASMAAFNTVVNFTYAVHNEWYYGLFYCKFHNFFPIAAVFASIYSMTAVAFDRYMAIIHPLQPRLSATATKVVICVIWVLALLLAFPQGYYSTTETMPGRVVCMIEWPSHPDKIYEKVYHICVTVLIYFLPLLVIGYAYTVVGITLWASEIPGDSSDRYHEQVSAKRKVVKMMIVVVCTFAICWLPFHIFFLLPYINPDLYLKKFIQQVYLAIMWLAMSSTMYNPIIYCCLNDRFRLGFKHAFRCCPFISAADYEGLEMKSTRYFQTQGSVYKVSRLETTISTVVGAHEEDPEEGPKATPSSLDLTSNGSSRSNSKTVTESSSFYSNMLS
# T1 sequence (P25103 whole entry): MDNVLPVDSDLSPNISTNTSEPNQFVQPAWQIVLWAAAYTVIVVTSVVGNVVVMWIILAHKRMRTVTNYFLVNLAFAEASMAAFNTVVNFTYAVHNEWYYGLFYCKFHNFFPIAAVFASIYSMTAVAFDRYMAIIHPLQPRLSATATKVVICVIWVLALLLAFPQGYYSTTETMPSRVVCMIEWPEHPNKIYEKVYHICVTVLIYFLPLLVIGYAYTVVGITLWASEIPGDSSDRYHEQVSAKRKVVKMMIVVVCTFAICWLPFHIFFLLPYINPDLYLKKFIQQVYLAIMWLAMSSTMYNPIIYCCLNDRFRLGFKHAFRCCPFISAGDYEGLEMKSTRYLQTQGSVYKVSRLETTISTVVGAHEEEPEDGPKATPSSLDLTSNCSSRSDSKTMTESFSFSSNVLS
smiles,measurement,setting,value
"COc1ccc(C(C)C)cc1CN[C@H]1C2CCN(CC2)[C@H]1C(c1ccccc1)c1ccccc1 [CJ-11,974]",discomfort associated with rectosigmoidal distension,NK-1,alleviated the discomfort
C[C@@H](O[C@H]1OCCN(Cc2n[nH]c(=O)[nH]2)[C@H]1c1ccc(F)cc1)c1cc(C(F)(F)F)cc(C(F)(F)F)c1 [MK-869],time after administration up to which foot-tapping is significantly inhibited,NK-1 receptor [1]; 1.2 mg/kg po,up to 24 hours
same,"ED50, inhibition of foot-tapping behavior","NK-1 receptor [1]; po, GR 73632 3 pmol icv, gerbil",0.4 ± 0.05 mg/kg
CC(=O)N[C@@H]1[C@@H](O)[C@H](O)[C@@H](CO)O[C@H]1NC(=O)C[C@@H]1NC(=O)[C@H](CC(C)C)NC(=O)[C@@H]2CNC(=O)C[C@H](NC1=O)C(=O)N[C@@H](Cc1c[nH]c3ccccc13)C(=O)N[C@@H](Cc1ccccc1)C(=O)N2 [nepadutant] (cyclo(D(NH(β-GlcNAc))DWF[Dap]L); lactam 2-5),basal gastrointestinal motility,NK-2 receptor [2],without affecting
same,motility-stimulating effect of neurokinin A,NK-2 receptor [2],effectively antagonized
"O=C(c1ccccc1Cl)c1cccnc1-c1nnn(Cc2cc(C(F)(F)F)cc(C(F)(F)F)c2)c1-c1ccncc1 [tradipitant, {2-[1-(3,5-bistrifluoromethylbenzyl)-5-pyridin-4-yl-1H-[1,2,3]triazol-4-yl]-pyridin-3-yl}-(2-chlorophenyl)-methanone]","activity in panel of 74 additional receptors, enzymes, and ion channels including NK-2 and NK-3",[3],no significant activity
same,inhibition of binding,"[3]; test concentration 1 μM, 74 targets",≤ 50%
same,inhibition at the NK-2 receptor,NK-2 receptor [4],no significant inhibition
same,inhibition at the NK-3 receptor,NK-3 receptor,no significant inhibition
same,time after administration up to which foot-tapping is significantly inhibited,NK-1 receptor [1]; 0.1 mg/kg po,up to 7 hours
same,time after administration up to which foot-tapping is significantly reversed,NK-1 receptor [1]; 1 mg/kg,up to 16 hours
same,inhibition of vocalization at low doses,"NK-1 receptor [5]; at and below 0.1 mg/kg, 0.05 and 0.025 mg/kg, p<0.001",retains significant inhibitory activity
same,"suppression of agonist-induced vocalization, duration of activity study","NK-1 receptor [5]; single dose 0.1 mg/kg oral, 7 hours after administration",significantly active
same,"estimated ED50, brain NK-1 receptor occupancy",brain NK-1 receptors,0.04 mg/kg
same,change of average daily nausea score compared to pre-treatment,nausea in gastroparesis,reduced by approximately one half
same,change of average percentage of nausea-free days compared to pre-treatment,nausea in gastroparesis,doubled or greater
